In PubChem BioAssay (NCI):
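The compound was tested at five concentrations on cells cultured in 96-well plates, with a 48-hour exposure period. TGI marks complete inhibition of growth.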

How the values were obtained:
Assay in all cases: DTP human tumour cell line panel, 48 h
COLO 205 colon = system: COLO 205 colon
HT29 colon = system: HT29 colon
K-562 leukemia = system: K-562 leukemia
LOX IMVI melanoma = system: LOX IMVI melanoma
MOLT-4 leukemia = system: MOLT-4 leukemia
NCI-H23 lung = system: NCI-H23 lung
NCI/ADR-RES ovarian = system: NCI/ADR-RES ovarian
SF-295 CNS = system: SF-295 CNS
SW-620 colon = system: SW-620 colon
T-47D breast = system: T-47D breast

Row | Structure (SMILES) | TGI (COLO 205 colon) [µM] | TGI (HT29 colon) [µM] | TGI (K-562 leukemia) [µM] | TGI (LOX IMVI melanoma) [µM] | TGI (MOLT-4 leukemia) [µM] | TGI (NCI-H23 lung) [µM] | TGI (NCI/ADR-RES ovarian) [µM] | TGI (SF-295 CNS) [µM] | TGI (SW-620 colon) [µM] | TGI (T-47D breast) [µM]
1 | Cc1ccc(S(=O)(=O)c2scc(-c3ccccc3)c2C)cc1 | > 100 | > 100 | > 100 | > 100 | > 100 | > 100 | > 100 | > 100 | > 100 | > 100
2 | CCCCNC1CCC2(SCCS2)c2[nH]c3ccccc3c21 (stereo not given) | > 62.3 | > 100 | 55.1 | 14.4 | 33.5 | > 100 | > 100 | > 100 | > 82.6 | 6.23
3 | CC[C@@]1(O)C(=O)OCc2c1cc1n(c2=O)Cc2c-1nc1ccccc1c2/C=N\NC(=O)C(N)CC(C)C (stereo not given in full) | 12.1 | > 100 | > 100 | 0.244 | 0.106 | 0.112 | 0.856 | 0.694 | > 40.2 | > 100
4 | c1ccc(C2=NC3(CCCCC3)N(c3nc4ccccc4s3)N2)nc1 | 41.4 | 58 | > 100 | 51.6 | > 100 | 84.8 | 65.3 | > 100 | > 100 | 49.6
5 | COC(=O)c1c2c(cc3c1CC1(Cc4ccccc4C1=O)C3)CCC2 (stereo not given) | 23.4 | 96.9 | > 100 | > 100 | 47.4 | > 100 | 79.3 | > 100 | > 100 | > 100
6 | COC(=O)N1CC2(CO)C3CC=C(C(=O)Nc4ccccc4Br)C2C1C3Br (stereo not given) | > 50 | > 50 | > 50 | > 50 | > 50 | > 50 | > 50 | > 50 | > 50 | > 50
7 | O=C1C(N2CCCC2)=CC(=O)c2c(O)c(N3CCCC3)c(Cl)c(O)c21 | > 10 | > 10 | > 10 | > 10 | > 10 | > 10 | > 10 | > 10 | > 10 | > 10
8 | CC[n+]1cnc(N)c2c(-c3ccc(Cl)cc3)cn(-c3ccc(C)cc3)c21 | 17.1 | 17.7 | 20.7 | 25.9 | 20.5 | 35.4 | 26.5 | 25.3 | 30.5 | 32.2
9 | Nc1nc2c(=O)c3ccccc3sc2s1 | > 100 | > 100 | > 100 | > 100 | > 100 | > 100 | 90.5 | > 100 | > 100 | > 100
10 | C1=C\SS/C=C\SS/C=C\SS/C=C\SS/1 | > 100 | > 100 | 64 | > 100 | > 100 | > 100 | > 100 | > 100 | > 100 | > 100
11 | COc1cccc2c1OC1c3ccccc3OCC1C2 (stereo not given) | > 100 | > 100 | > 100 | > 100 | > 100 | > 100 | > 100 | > 100 | > 100 | > 100
12 | CCOC(=O)c1cnc(-n2[nH]c(C)c(CCO)c2=O)[nH]c1=O | > 100 | > 100 | > 100 | > 100 | > 100 | > 100 | > 100 | > 100 | > 100 | > 100
13 | CCOc1cc2c(cc1O)/C(=N\N)C[C@@H]1[C@@H]2CC[C@]2(C)[C@@H](O)CC[C@@H]12 | > 56.5 | 30.8 | > 100 | > 41.5 | > 100 | 92.1 | > 28.2 | 6.15 | 17.8 | > 39.5
14 | C=CCNC(=S)Nc1sc2c(c1C(=O)OCC)CC(C)CC2 (stereo not given) | 35.6 | 47.1 | > 100 | > 100 | 80 | > 100 | > 100 | 59.5 | > 100 | 66.7
15 | O=S(=O)(Oc1ccc2oc3ccccc3c2c1-c1c(OS(=O)(=O)C(F)(F)F)ccc2oc3ccccc3c12)C(F)(F)F | > 100 | > 100 | > 100 | > 100 | > 100 | > 100 | > 100 | > 100 | > 100 | > 100
16 | O=C1c2ccccc2C(=O)N1n1c(Cc2ccccc2)n[nH]c1=O | > 100 | > 100 | > 100 | > 100 | > 100 | > 100 | > 100 | > 100 | > 100 | > 100
17 | CCOC(=O)c1cn(-c2ccccc2)c(=S)n2c1nc1ccccc12 | > 64.8 | > 90.8 | > 100 | > 100 | 17.5 | > 100 | > 100 | > 100 | > 100 | > 100
